In paper PMC11361161 (BMC Chemistry, 2024):
Read-outs that look alike come from different tables or passages of the source.

Biological target: human thymidylate synthase (hTS) (Homo sapiens, UniProt P04818)
Assay: Thymidylate synthase inhibitory assay
Format: biochemical

Sequence of human thymidylate synthase (hTS) (P04818 whole entry): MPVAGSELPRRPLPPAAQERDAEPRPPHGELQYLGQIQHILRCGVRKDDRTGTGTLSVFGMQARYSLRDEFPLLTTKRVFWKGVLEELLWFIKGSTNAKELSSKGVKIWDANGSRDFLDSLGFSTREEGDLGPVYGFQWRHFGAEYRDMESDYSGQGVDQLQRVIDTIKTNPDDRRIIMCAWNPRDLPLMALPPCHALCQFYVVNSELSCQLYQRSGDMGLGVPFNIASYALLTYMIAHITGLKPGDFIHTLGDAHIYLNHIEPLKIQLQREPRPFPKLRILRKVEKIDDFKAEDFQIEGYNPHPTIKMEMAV

| IC50 (read-out: In vitro thymidylate synthase (TS) IC50, 30 °C, pH 7.4, 30 nM hTS, absorbance at 340 nm, mean ± SEM, triplicate) [nM] | IC50 [nM] | Molecule |
| --- | --- | --- |
| 13.5 ± 0.96 | – | 7-(4-methoxyphenyl)-1,3-dimethyl-5-(naphthalen-2-yl)pyrido[2,3-d]pyrimidine-2,4(1 H,3 H)-dione [Compound 2n] |
| – | 20.5 ± 1.09 | COc1ccc(-c2cc(-c3ccc(N(C)C)cc3)c3c(=O)[nH]c(=O)[nH]c3n2)cc1 [Compound 1j, 5-(4-(dimethylamino)phenyl)-7-(4-methoxyphenyl)pyrido[2,3-d]pyrimidine-2,4(1 H,3 H)-dione] |
| – | 20.5 ± 1.09 | COc1ccc(-c2cc(-c3ccc4ccccc4c3)c3c(=O)[nH]c(=O)[nH]c3n2)cc1 [Compound 1n, 7-(4-methoxyphenyl)-5-(naphthalen-2-yl)pyrido[2,3-d]pyrimidine-2,4(1 H,3 H)-dione] |
| – | 13.5 ± 0.96 | COc1ccc(-c2cc(-c3ccc(N(C)C)cc3)c3c(=O)n(C)c(=O)n(C)c3n2)cc1 [Compound 2j, 5-(4-(dimethylamino)phenyl)-7-(4-methoxyphenyl)-1,3-dimethylpyrido[2,3-d]pyrimidine-2,4(1 H,3 H)-dione] |
